Assays:
Test in all cases: KINOMEscan
Type in all cases: binding
Conditions in all cases: 1.0 µM
[1] = target: T1, ABL1(E255K)-phosphorylated (Homo sapiens, UniProt P00519, E255K)
T1 construct: purchased Eurofins/DiscoverX KINOMEscan scanMAX
Experimental: (§1) Kinase retention to the immobilized ligand is then measured using quantitative real-time PCR for each kinase-specific DNA barcode.

[2] = target: T2, ABL1(T315I)-phosphorylated (Homo sapiens, UniProt P00519, T315I)
T2 construct: purchased Eurofins/DiscoverX KINOMEscan scanMAX
Experimental: as §1

ABL1-nonphosphorylated = target: T3, ABL1-nonphosphorylated (Homo sapiens, UniProt P00519)
T3 construct: purchased Eurofins/DiscoverX KINOMEscan scanMAX
Experimental: as §1

ABL2 = target: T4, ABL2 (Homo sapiens, UniProt P42684)
T4 construct: purchased Eurofins/DiscoverX KINOMEscan scanMAX
Experimental: as §1

ACVR1B = target: T5, ACVR1B (Homo sapiens, UniProt P36896)
T5 construct: purchased Eurofins/DiscoverX KINOMEscan scanMAX
T5 sequence (P36896 24-505): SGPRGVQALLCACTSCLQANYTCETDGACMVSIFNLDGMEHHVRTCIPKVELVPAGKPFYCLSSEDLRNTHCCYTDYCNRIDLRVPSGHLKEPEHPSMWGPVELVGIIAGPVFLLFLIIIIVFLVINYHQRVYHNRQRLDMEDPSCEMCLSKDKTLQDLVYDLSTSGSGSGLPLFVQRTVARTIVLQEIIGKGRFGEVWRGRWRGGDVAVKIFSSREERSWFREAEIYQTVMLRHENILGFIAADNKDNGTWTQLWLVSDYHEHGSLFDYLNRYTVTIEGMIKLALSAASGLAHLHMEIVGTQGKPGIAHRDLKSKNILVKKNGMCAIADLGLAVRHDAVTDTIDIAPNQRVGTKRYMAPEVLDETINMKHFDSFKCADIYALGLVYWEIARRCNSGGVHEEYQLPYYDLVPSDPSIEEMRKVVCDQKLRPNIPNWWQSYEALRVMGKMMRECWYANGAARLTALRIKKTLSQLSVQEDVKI
Experimental: as §1

ACVR2A = target: T6, ACVR2A (Homo sapiens, UniProt P27037)
T6 construct: purchased Eurofins/DiscoverX KINOMEscan scanMAX
Experimental: as §1

AMPK-alpha1 = target: T7, AMPK-alpha1 (Homo sapiens, UniProt Q13131)
T7 construct: purchased Eurofins/DiscoverX KINOMEscan scanMAX
T7 sequence (Q13131 whole entry): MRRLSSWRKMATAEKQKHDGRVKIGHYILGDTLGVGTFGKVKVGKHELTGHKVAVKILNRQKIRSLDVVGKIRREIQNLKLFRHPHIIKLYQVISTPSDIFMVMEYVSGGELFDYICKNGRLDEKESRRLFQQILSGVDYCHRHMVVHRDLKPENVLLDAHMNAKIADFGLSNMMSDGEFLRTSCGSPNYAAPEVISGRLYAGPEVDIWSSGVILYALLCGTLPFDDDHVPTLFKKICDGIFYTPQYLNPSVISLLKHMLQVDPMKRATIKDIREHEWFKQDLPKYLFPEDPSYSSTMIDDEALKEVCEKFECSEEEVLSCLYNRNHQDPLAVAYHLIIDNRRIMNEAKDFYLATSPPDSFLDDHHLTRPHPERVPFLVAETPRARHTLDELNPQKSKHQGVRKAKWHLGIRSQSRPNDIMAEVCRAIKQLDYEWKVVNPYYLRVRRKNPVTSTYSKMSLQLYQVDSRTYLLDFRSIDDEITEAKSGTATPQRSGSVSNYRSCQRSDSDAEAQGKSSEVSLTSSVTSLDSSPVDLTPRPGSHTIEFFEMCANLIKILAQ
Experimental: as §1

ASK1 = target: T8, ASK1 (Homo sapiens, UniProt Q99683)
T8 construct: purchased Eurofins/DiscoverX KINOMEscan scanMAX
Experimental: as §1

CAMK1B = target: T9, CAMK1B (Homo sapiens, UniProt Q6P2M8)
T9 construct: purchased Eurofins/DiscoverX KINOMEscan scanMAX
T9 sequence (Q6P2M8 whole entry): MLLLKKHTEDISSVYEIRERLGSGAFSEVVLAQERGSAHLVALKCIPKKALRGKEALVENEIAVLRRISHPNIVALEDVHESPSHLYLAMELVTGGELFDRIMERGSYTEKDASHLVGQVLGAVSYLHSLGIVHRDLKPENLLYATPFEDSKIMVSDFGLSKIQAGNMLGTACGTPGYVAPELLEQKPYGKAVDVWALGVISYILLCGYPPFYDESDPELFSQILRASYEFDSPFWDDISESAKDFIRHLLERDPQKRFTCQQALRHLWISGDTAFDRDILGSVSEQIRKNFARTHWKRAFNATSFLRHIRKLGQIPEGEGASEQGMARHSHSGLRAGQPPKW
Experimental: as §1

CDC2L1 = target: T10, CDC2L1 (Homo sapiens, UniProt P21127)
T10 construct: purchased Eurofins/DiscoverX KINOMEscan scanMAX
Experimental: as §1

CDC2L2 = target: T11, CDC2L2 (Homo sapiens, UniProt Q9UQ88)
T11 construct: purchased Eurofins/DiscoverX KINOMEscan scanMAX
Experimental: as §1

DCAMKL3 = target: T12, DCAMKL3 (Homo sapiens, UniProt Q9C098)
T12 construct: purchased Eurofins/DiscoverX KINOMEscan scanMAX
Experimental: as §1

DRAK2 = target: T13, DRAK2 (Homo sapiens, UniProt O94768)
T13 construct: purchased Eurofins/DiscoverX KINOMEscan scanMAX
Experimental: as §1

ERK1 = target: T14, ERK1 (Homo sapiens, UniProt P27361)
T14 construct: purchased Eurofins/DiscoverX KINOMEscan scanMAX
Experimental: as §1

ERK5 = target: T15, ERK5 (Homo sapiens, UniProt Q13164)
T15 construct: purchased Eurofins/DiscoverX KINOMEscan scanMAX
T15 sequence (Q13164 whole entry): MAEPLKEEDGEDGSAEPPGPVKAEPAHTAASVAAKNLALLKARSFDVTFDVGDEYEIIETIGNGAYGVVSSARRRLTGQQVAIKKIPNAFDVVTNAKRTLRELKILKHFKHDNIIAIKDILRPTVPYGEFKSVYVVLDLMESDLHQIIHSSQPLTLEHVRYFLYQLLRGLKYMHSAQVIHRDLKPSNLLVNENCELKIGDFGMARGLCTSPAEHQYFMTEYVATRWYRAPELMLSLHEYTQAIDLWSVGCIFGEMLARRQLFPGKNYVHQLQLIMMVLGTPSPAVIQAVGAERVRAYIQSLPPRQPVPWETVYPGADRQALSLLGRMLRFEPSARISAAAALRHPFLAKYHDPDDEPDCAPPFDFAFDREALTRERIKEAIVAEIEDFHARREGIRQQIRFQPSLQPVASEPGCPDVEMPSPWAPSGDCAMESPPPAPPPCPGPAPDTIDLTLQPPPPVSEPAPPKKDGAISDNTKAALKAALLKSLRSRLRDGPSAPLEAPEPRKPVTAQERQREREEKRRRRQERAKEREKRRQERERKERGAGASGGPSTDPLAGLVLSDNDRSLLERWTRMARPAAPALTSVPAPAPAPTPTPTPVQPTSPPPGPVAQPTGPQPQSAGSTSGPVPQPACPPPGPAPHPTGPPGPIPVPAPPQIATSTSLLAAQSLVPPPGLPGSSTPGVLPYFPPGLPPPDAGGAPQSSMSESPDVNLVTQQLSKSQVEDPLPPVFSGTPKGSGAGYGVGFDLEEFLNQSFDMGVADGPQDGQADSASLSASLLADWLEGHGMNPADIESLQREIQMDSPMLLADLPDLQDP
Experimental: as §1

FGFR2 = target: T16, FGFR2 (Homo sapiens, UniProt P21802)
T16 construct: purchased Eurofins/DiscoverX KINOMEscan scanMAX
Experimental: as §1

FLT3(R834Q) = target: T17, FLT3(R834Q) (Homo sapiens, UniProt P36888, R834Q)
T17 construct: purchased Eurofins/DiscoverX KINOMEscan scanMAX
Experimental: as §1

GAK = target: T18, GAK (Homo sapiens, UniProt O14976)
T18 construct: purchased Eurofins/DiscoverX KINOMEscan scanMAX
Experimental: as §1

GCN2(Kin.Dom.2,S808G) = target: T19, GCN2(Kin.Dom.2,S808G) (Homo sapiens, UniProt Q9P2K8, S808G)
T19 construct: GCN2(Kin.Dom.2,S808G); purchased Eurofins/DiscoverX KINOMEscan scanMAX
Experimental: as §1

[3] = target: T20, JAK3(JH1domain-catalytic) (Homo sapiens, UniProt P52333)
T20 construct: JAK3(JH1domain-catalytic); purchased Eurofins/DiscoverX KINOMEscan scanMAX
T20 sequence (P52333 813-1124 limits assumed): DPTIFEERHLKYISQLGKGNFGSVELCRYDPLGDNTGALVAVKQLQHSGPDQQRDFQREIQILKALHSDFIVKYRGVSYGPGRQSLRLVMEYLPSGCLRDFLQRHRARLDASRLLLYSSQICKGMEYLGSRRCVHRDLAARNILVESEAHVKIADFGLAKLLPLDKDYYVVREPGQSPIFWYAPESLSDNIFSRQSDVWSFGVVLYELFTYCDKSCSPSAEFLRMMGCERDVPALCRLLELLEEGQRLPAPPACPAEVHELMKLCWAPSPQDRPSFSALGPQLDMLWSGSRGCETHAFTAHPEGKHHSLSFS
Experimental: as §1

JNK3 = target: T21, JNK3 (Homo sapiens, UniProt P53779)
T21 construct: purchased Eurofins/DiscoverX KINOMEscan scanMAX
Experimental: as §1

MET(Y1235D) = target: T22, MET(Y1235D) (Homo sapiens, UniProt P08581, Y1235D)
T22 construct: purchased Eurofins/DiscoverX KINOMEscan scanMAX
Experimental: as §1

MYO3B = target: T23, MYO3B (Homo sapiens, UniProt Q8WXR4)
T23 construct: purchased Eurofins/DiscoverX KINOMEscan scanMAX
Experimental: as §1

NEK3 = target: T24, NEK3 (Homo sapiens, UniProt P51956)
T24 construct: purchased Eurofins/DiscoverX KINOMEscan scanMAX
T24 sequence (P51956 whole entry): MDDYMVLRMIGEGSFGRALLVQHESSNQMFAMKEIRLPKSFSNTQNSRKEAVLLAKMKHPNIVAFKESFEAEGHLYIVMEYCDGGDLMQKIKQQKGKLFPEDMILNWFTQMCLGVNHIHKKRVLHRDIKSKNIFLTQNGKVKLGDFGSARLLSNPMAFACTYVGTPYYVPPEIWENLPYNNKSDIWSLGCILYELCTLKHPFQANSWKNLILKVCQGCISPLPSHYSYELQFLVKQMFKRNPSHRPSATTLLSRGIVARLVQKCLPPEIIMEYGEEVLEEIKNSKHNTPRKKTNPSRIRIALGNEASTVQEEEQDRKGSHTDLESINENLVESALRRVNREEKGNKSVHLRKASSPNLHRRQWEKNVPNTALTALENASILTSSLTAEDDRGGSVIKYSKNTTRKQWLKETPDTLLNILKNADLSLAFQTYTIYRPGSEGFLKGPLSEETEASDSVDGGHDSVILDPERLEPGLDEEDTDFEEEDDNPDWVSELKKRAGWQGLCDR
Experimental: as §1

PIK3CA(E542K) = target: T25, PIK3CA(E542K) (Homo sapiens, UniProt P42336, E542K)
T25 construct: purchased Eurofins/DiscoverX KINOMEscan scanMAX
Experimental: as §1

PIK4CB = target: T26, PIK4CB (Homo sapiens, UniProt Q9UBF8)
T26 construct: purchased Eurofins/DiscoverX KINOMEscan scanMAX
T26 sequence (Q9UBF8 whole entry): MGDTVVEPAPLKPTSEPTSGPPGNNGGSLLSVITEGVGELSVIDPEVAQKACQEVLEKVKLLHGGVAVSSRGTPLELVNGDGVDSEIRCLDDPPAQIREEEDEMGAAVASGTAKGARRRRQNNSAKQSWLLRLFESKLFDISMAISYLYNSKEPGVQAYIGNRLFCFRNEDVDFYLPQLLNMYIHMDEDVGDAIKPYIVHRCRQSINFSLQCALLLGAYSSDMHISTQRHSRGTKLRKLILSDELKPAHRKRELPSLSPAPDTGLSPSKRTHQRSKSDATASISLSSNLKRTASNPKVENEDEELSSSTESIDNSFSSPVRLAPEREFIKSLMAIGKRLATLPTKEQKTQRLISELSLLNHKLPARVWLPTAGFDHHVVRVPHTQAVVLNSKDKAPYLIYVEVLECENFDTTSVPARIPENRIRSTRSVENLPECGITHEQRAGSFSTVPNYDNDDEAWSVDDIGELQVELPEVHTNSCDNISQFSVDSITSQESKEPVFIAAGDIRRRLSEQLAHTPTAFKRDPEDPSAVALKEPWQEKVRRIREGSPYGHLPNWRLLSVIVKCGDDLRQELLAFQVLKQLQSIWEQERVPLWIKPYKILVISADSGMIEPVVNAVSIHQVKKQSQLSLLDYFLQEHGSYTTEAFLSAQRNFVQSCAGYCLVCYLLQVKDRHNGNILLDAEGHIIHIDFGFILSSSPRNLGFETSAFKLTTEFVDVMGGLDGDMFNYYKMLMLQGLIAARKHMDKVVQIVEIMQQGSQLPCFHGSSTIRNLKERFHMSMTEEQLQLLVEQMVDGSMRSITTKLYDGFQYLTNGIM
Experimental: as §1

PKAC-alpha = target: T27, PKAC-alpha (Homo sapiens, UniProt P17612)
T27 construct: purchased Eurofins/DiscoverX KINOMEscan scanMAX
Experimental: as §1

PLK2 = target: T28, PLK2 (Homo sapiens, UniProt Q9NYY3)
T28 construct: purchased Eurofins/DiscoverX KINOMEscan scanMAX
Experimental: as §1

PRKD1 = target: T29, PRKD1 (Homo sapiens, UniProt Q15139)
T29 construct: purchased Eurofins/DiscoverX KINOMEscan scanMAX
Experimental: as §1

PRKG2 = target: T30, PRKG2 (Homo sapiens, UniProt Q13237)
T30 construct: purchased Eurofins/DiscoverX KINOMEscan scanMAX
Experimental: as §1

RET(M918T) = target: T31, RET(M918T) (Homo sapiens, UniProt P07949, M918T)
T31 construct: purchased Eurofins/DiscoverX KINOMEscan scanMAX
T31 sequence (P07949 29-1114 M918T): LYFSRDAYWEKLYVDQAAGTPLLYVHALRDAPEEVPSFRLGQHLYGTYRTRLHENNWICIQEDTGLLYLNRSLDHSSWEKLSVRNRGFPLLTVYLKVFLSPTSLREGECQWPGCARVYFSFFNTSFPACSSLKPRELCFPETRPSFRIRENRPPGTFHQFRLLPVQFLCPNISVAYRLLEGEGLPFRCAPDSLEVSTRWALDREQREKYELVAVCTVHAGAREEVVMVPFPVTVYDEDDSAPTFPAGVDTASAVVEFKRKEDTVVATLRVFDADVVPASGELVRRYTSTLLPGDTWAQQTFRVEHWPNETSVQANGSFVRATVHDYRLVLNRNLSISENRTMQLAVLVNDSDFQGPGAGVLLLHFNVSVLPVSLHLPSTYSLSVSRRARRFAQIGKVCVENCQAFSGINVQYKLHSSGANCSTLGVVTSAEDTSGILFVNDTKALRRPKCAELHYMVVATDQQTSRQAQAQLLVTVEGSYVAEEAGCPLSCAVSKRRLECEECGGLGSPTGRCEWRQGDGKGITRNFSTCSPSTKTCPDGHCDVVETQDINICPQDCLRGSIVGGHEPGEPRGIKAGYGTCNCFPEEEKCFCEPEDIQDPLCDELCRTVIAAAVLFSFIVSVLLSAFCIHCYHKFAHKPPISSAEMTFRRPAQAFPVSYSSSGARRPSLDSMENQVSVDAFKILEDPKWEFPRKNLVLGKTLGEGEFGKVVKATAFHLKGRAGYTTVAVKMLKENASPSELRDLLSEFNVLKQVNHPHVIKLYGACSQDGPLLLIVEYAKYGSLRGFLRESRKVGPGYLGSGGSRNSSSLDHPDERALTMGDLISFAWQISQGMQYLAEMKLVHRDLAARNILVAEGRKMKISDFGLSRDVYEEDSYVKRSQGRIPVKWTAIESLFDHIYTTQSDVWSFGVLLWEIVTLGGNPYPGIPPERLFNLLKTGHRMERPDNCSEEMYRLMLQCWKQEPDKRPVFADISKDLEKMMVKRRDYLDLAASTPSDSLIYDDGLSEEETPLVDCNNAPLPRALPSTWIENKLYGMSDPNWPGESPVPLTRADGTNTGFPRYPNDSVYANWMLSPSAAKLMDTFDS
Experimental: as §1

RET(V804L) = target: T32, RET(V804L) (Homo sapiens, UniProt P07949, V804L)
T32 construct: purchased Eurofins/DiscoverX KINOMEscan scanMAX
T32 sequence (P07949 29-1114 V804L): as the sequence (P07949 29-1114 M918T) above, with V776L, T890M counted along it
Experimental: as §1

[4] = target: T33, RSK4(Kin.Dom.2-C-terminal) (Homo sapiens, UniProt Q9UK32)
T33 construct: RSK4(Kin.Dom.2-C-terminal); purchased Eurofins/DiscoverX KINOMEscan scanMAX
Experimental: as §1

SRMS = target: T34, SRMS (Homo sapiens, UniProt Q9H3Y6)
T34 construct: purchased Eurofins/DiscoverX KINOMEscan scanMAX
Experimental: as §1

SRPK2 = target: T35, SRPK2 (Homo sapiens, UniProt P78362)
T35 construct: purchased Eurofins/DiscoverX KINOMEscan scanMAX
Experimental: as §1

SgK110 = target: T36, SgK110 (Homo sapiens, UniProt P0C264)
T36 construct: purchased Eurofins/DiscoverX KINOMEscan scanMAX
Experimental: as §1

TNK2 = target: T37, TNK2 (Homo sapiens, UniProt Q07912)
T37 construct: purchased Eurofins/DiscoverX KINOMEscan scanMAX
Experimental: as §1

ULK3 = target: T38, ULK3 (Homo sapiens, UniProt Q6PHR2)
T38 construct: DNA tag (qPCR barcode); purchased Eurofins/DiscoverX KINOMEscan scanMAX
Experimental: as §1

VRK2 = target: T39, VRK2 (Homo sapiens, UniProt Q86Y07)
T39 construct: DNA tag (qPCR barcode); purchased Eurofins/DiscoverX KINOMEscan scanMAX
Experimental: as §1

WEE1 = target: T40, WEE1 (Homo sapiens, UniProt P30291)
T40 construct: DNA tag (qPCR barcode); purchased Eurofins/DiscoverX KINOMEscan scanMAX
Experimental: as §1

CN1CCN(C2CCC(n3cc(-c4ccc(Oc5ccccc5)cc4)c4c(N)ncnc43)CC2)CC1 (stereo not shown) [A-419259]
% Control [1]: 0.5% | % Control [2]: 83% | % Control (ABL1-nonphosphorylated): 0.1% | % Control (ABL2): 4.9% | % Control (ACVR1B): 100% | % Control (ACVR2A): 100% | % Control (AMPK-alpha1): 43% | % Control (ASK1): 100% | % Control (CAMK1B): 100% | % Control (CDC2L1): 61% | % Control (CDC2L2): 91% | % Control (DCAMKL3): 100% | % Control (DRAK2): 93% | % Control (ERK1): 100% | % Control (ERK5): 58% | % Control (FGFR2): 39% | % Control (FLT3(R834Q)): 2.7% | % Control (GAK): 69% | % Control (GCN2(Kin.Dom.2,S808G)): 79% | % Control [3]: 65% | % Control (JNK3): 99% | % Control (MET(Y1235D)): 100% | % Control (MYO3B): 17% | % Control (NEK3): 92% | % Control (PIK3CA(E542K)): 85% | % Control (PIK4CB): 83% | % Control (PKAC-alpha): 100% | % Control (PLK2): 77% | % Control (PRKD1): 63% | % Control (PRKG2): 100% | % Control (RET(M918T)): 0.1% | % Control (RET(V804L)): 24% | % Control [4]: 94% | % Control (SRMS): 0% | % Control (SRPK2): 97% | % Control (SgK110): 100% | % Control (TNK2): 1.1% | % Control (ULK3): 84% | % Control (VRK2): 39% | % Control (WEE1): 100%

From article PMC6886798, “Expression of myeloid Src-family kinases is associated with poor prognosis in AML and influences Flt3-ITD kinase inhibitor acquired resistance” (PLoS ONE, 2019)
